Reference: ChEMBL document CHEMBL5143690, “Identification of nitrofuranylchalcone tethered benzoxazole-2-amines as potent inhibitors of drug resistant Mycobacterium tuberculosis demonstrating bactericidal efficacy” (Bioorg Med Chem, 2022)
≈ marks a conversion by molar mass, not a printed value.

Legend:
Assay type in all cases: functional
[1] = system: Mycobacterium tuberculosis; experiment: Antimycobacterial activity against Mycobacterium tuberculosis H37Rv ATCC 27294 assessed as inhibition of bacterial growth measured after 7 days by resazurin microtitre assay; conditions: H37Rv ATCC 27294, 168 h, time 7 day
[2] = system: Escherichia coli; experiment: Antibacterial activity against Escherichia coli ATCC 25922 assessed as reduction in bacterial growth incubated for 16 to 18 hrs by microtiter plate assay; conditions: time 16-18 hrs
[3] = system: Staphylococcus aureus; experiment: Antibacterial activity against Staphylococcus aureus ATCC 29213 assessed as reduction in bacterial growth incubated for 16 to 18 hrs by microtiter plate assay; conditions: time 16-18 hrs
[4] = system: Klebsiella pneumoniae; experiment: Antibacterial activity against Klebsiella pneumoniae BAA 1705 assessed as reduction in bacterial growth incubated for 16 to 18 hrs by microtiter plate assay; conditions: time 16-18 hrs
[5] = system: Acinetobacter baumannii; experiment: Antibacterial activity against Acinetobacter baumannii BAA 1605 assessed as reduction in bacterial growth incubated for 16 to 18 hrs by microtiter plate assay; conditions: time 16-18 hrs
[6] = system: Pseudomonas aeruginosa; experiment: Antibacterial activity against Pseudomonas aeruginosa ATCC 27853 assessed as reduction in bacterial growth incubated for 16 to 18 hrs by microtiter plate assay; conditions: time 16-18 hrs
[7] = system: Mycobacteroides abscessus; experiment: Antimycobacterial activity against Mycobacterium abscessus ATCC 19977 assessed as inhibition of bacterial growth after 48 hrs by resazurin microtitre assay
[8] = system: Mycolicibacterium fortuitum; experiment: Antimycobacterial activity against Mycobacterium fortuitum ATCC 6841 assessed as inhibition of bacterial growth after 48 hrs by resazurin microtitre assay
[9] = system: Mycobacteroides chelonae; experiment: Antimycobacterial activity against Mycobacterium chelonae ATCC 6841 assessed as inhibition of bacterial growth after 48 hrs by resazurin microtitre assay

| Structure (SMILES) | MIC [1] [µg/mL] | MIC [2] [µg/mL] | MIC [3] [µg/mL] | MIC [4] [µg/mL] | MIC [5] [µg/mL] | MIC [6] [µg/mL] | MIC [7] [µg/mL] | MIC [8] [µg/mL] | MIC [9] [µg/mL] |
| --- | --- | --- | --- | --- | --- | --- | --- | --- | --- |
| COc1cc(/C=C/C(=O)c2ccc(Nc3nc4ccccc4o3)cc2)cc(OC)c1OC | 8 (≈ 18.6 µM) | > 64 | > 64 | > 64 | > 64 | > 64 | > 64 | > 64 | > 64 |
| CN[C@@H]1[C@H](O[C@H]2[C@H](O[C@H]3[C@H](O)[C@@H](O)[C@H](N=C(N)N)[C@@H](O)[C@@H]3N=C(N)N)O[C@@H](C)[C@]2(O)C=O)O[C@@H](CO)[C@H](O)[C@H]1O [STREPTOMYCIN] | 1 (≈ 1.72 µM) | – | – | – | – | – | – | – | – |
| Cc1ccc(/C=C/C(=O)c2ccc(Nc3nc4ccccc4o3)cc2)cc1 | > 64 | > 64 | > 64 | > 64 | > 64 | > 64 | > 64 | > 64 | > 64 |
| O=C(/C=C/c1cccc([N+](=O)[O-])c1)c1ccc(Nc2nc3ccccc3o2)cc1 | > 64 | > 64 | > 64 | > 64 | > 64 | > 64 | > 64 | > 64 | > 64 |
| COc1cc(/C=C/C(=O)c2ccc(Nc3nc4cc(C)ccc4o3)cc2)cc(OC)c1OC | 16 (≈ 36 µM) | > 64 | > 64 | > 64 | > 64 | > 64 | > 64 | > 64 | > 64 |
| COc1cc(/C=C/C(=O)c2ccc(Nc3nc4cc(Cl)ccc4o3)cc2)cc(OC)c1OC | 8 (≈ 17.2 µM) | > 64 | > 64 | > 64 | > 64 | > 64 | > 64 | > 64 | > 64 |
| CC(=O)N1N=C(c2ccc3oc(-c4ccc(O)cc4)nc3c2)CC1c1cccs1 (stereo not given) | 0.8 (≈ 1.98 µM) | – | – | – | – | – | – | – | – |
| COc1ccc(/C=C/C(=O)c2ccc(Nc3nc4ccccc4o3)cc2)c(OC)c1 | > 64 | > 64 | > 64 | > 64 | > 64 | > 64 | > 64 | > 64 | > 64 |
| COc1ccc(/C=C/C(=O)c2ccc(Nc3nc4ccccc4o3)cc2)cc1 | 32 (≈ 86.4 µM) | > 64 | > 64 | > 64 | > 64 | > 64 | > 64 | > 64 | > 64 |
| O=C(/C=C/c1ccncc1)c1ccc(Nc2nc3ccccc3o2)cc1 | 16 (≈ 46.9 µM) | > 64 | > 64 | > 64 | > 64 | > 64 | > 64 | > 64 | > 64 |
| COc1ccc(/C=C/C(=O)c2ccc(Nc3nc4ccccc4o3)cc2)c(OC)c1OC | 16 (≈ 37.2 µM) | > 64 | > 64 | > 64 | > 64 | > 64 | > 64 | > 64 | > 64 |
| COc1ccc(C(=O)/C=C/c2cc(OC)c(OC)c(OC)c2)cc1Nc1nc2ccccc2o1 | 64 (≈ 139 µM) | > 64 | > 64 | > 64 | > 64 | > 64 | > 64 | > 64 | > 64 |
| COc1ccc(OC)c(C(=O)/C=C/c2ccc3nccnc3c2)c1 | 3.13 (≈ 9.77 µM) | – | – | – | – | – | – | – | – |
| CC(=O)N1N=C(c2ccccc2)CC1c1cc(Cl)c2oc(S)nc2c1 (stereo not given) | 1.25 (≈ 3.36 µM) | – | – | – | – | – | – | – | – |
| CC[C@@H](CO)NCCN[C@@H](CC)CO [ETHAMBUTOL] | 2 (≈ 9.79 µM) | – | – | – | – | – | – | – | – |
| C[C@H]1COc2c(N3CCN(C)CC3)c(F)cc3c(=O)c(C(=O)O)cn1c23.C[C@H]1COc2c(N3CCN(C)CC3)c(F)cc3c(=O)c(C(=O)O)cn1c23.O [LEVOFLOXACIN] | – | 0.0078 | 0.125 | 64 | – | – | – | – | – |
| COc1cc(C2CC(c3ccccc3)=NN2C(C)=O)cc2nc(N)oc12 (stereo not given) | 0.625 (≈ 1.78 µM) | – | – | – | – | – | – | – | – |
| NNC(=O)c1ccncc1 [ISONIAZID] | 0.03 (≈ 0.219 µM) | – | – | – | – | – | – | – | – |
